Data set [1] is described as follows: Saturation level of urea, betaine and urea:betaine mixtures in water. Format: physicochemical. The text has this:
The concentrations of pure urea solution in water or PBS ranged from 0.025 to 10.1 M, the latter value corresponding to the saturation level of urea. Finally, the concentrations of pure betaine in water or PBS ranged from 0.025 to 5.4 M, this latter corresponding to the saturation level of betaine. In this Example, anhydrous urea:betaine (U:B) mixtures at different molar ratios were first prepared, then solubilized in distilled water at different concentrations ranging from 1.5 g/L to the saturation level which was 607, 813, 985, 957, 795, 741, and 633 g/L for the U:B ratios 1:0, 3:1, 2:1, 1:1, 1:2, 1:3, and 0:1, respectively.

Data set [2] is described as follows: Solubilization of disperse red 13 by urea:betaine aqueous solutions (absorbance at 525 nm). Format: physicochemical. Conditions: distilled water, room temperature. On the procedure:
The desired amounts of betaine and/or urea powders were dissolved in distilled water or phosphate buffer solution (PBS, 67 mM) at pH 7.0 to form a 100 mL solution.
The concentration of urea in the urea:betaine mixtures in water or PBS ranged from 0.025 to 8.3 M.
The solutions of urea and/or betaine in PBS were adjusted to provide a pH of 7.0 using concentrated HCl. The volume of added HCl was taken into account when calculating the final molar concentration of betaine and/or urea.
10 mL of the osmolyte solution was added to a vial containing 5 mg red disperse 13 in excess ([…], Sigma), then magnetically stirred (500 rpm) for 16 hours and filtrated (0.45 μm). The concentration of red disperse 13 in the filtrate is measured at 525 nm (Shimadzu UV-1800, Japan). […]
These liquid mixtures were mixed with an excess of disperse red 13 used as a hydrophobic probe to screen the solubilization properties of the solvents. It can be observed from FIG. 1 that the disperse red 13 absorbance increases exponentially 525 nm approx.) with increasing the deep eutectic concentration in water. […]

The format of data set [3] is physicochemical. The text has this:
To further improve the washing procedure that leads to a high carnosic acid content in the final extract and, concomitantly, a strong antioxidant activity, here we studied the effect of the addition of sodium chloride on the CA hydrosolubility.

The values below come from patent US20220305401A1, “EUTECTIC EXTRACTION OF SOLIDS” (Givaudan SA, priority 2019, published 2022).

SMILES strings stand for the structures.

As to `C[N+](C)(C)CC(=O)O` [betaine], the saturation level was 633 g/L in data set [1] (distilled water) and 5.4 M in data set [1] (water or PBS). For the same molecule, the “hydrotropic behavior for disperse red 13” value in data set [2] is recorded as “too modestly to be qualified as such”.
Take `CC(C)c1cc2c(c(O)c1O)[C@@]1(C(=O)O)CCCC(C)(C)[C@@H]1CC2` [CA, carnosic acid]: in data set [3], the water solubility result is given as “strongly reduced”.
As for `NC(N)=O` [urea, Urea], the saturation level is 607 g/L in data set [1] (distilled water) and 10.1 M in data set [1] (water or PBS). Also, the “hydrotropic behavior for disperse red 13” value in data set [2] is “displays a hydrotropic behavior”.
